Results taken from patent EP4696689A1, “SALT FORM AND CRYSTAL FORM OF CHIRAL HETEROCYCLIC COMPOUND HAVING HEDGEHOG PATHWAY ANTAGONIST ACTIVITY” (Suzhou Kintor Pharmaceuticals, Inc., priority 2023, dated 2024).

System: Gli1 Gene
Assay: Gli1 mRNA expression in tumor tissues (RT-qPCR), Shh signaling pathway analysis
Type: in vivo, CB-17/SCID mice
Conditions: for mRNA Expression Level of Glil Gene: tumor tissue 2 hours after last administration, GAPDH internal reference
Excerpt: Table 7-1 The Grouping and Drug Administration Plan
Primary tumor cells were extracted from Math1-Cre/Ptch1 ^C/C mice with spontaneous medulloblastoma and subcutaneously inoculated into CB-17/SCID mice to establish a xenograft model of medulloblastoma.
CB-17/SCID mice were subcutaneously injected with primary extracted medulloblastoma cells. After 3-4 weeks, a subset of mice developed tumors with volumes ranging from 150 to 300 mm^3.
From these mice, 25 tumor-bearing mice with uniform tumor sizes (with CV < 30%, CV = SD/Mean) were selected and randomly divided into 5 experimental groups (Vehicle, GDC-0449-10 mg/kg, Compound A-10 mg/kg, Compound A-3 mg/kg, Compound A-1 mg/kg) according to Table 2. Each group consisted of 5 mice per cage. Administration began on the day after grouping. The administration period was 3 days, with a frequency of BID. Tumor tissues were collected 2 hours after the last administration, and the mRNA expression level of the Glil gene in the tumor tissues was analyzed by RT-qPCR.
The tumor tissues were lysed by RNAiso Plius (TaKaRa, 108-95-2) to extractand RNA was then extracted using chloroform extraction and isopropanol precipitation methods. Subsequently, the mRNA level of the Glil gene was detected using a real-time fluorescence quantitative PCR instrument (ABI 7500), with GAPDH serving as the internal reference for quantitative analysis.
Experimental data in all tables are presented as "mean ± standard deviation" with error bars in figures representing standard error of the mean (SEM). Student's t-test was used to compare statistical differences in Glil gene mRNA expression levels in tumor tissues among treatment groups. All data were analyzed using GraphPad Prism 5.0. P-value <0.05 was considered statistically significant. ***, P<0.001; ##, P<0.01.
Glil is a target gene of the Hedgehog signaling pathway, and its mRNA expression level reflects the activation status of the hedgehog signaling pathway.

## Cc1cnc(-c2cc(N3CCc4nc(N5CCC(O)CC5)ncc4[C@H]3C)ncc2Cl)c(C)c1 [Fumarate crystal form F]
1 mg/kg i.g. BID × 3 days
  mRNA Expression Level of Glil Gene: 0.609 ± 0.140
3 mg/kg i.g. BID × 3 days
  mRNA Expression Level of Glil Gene: 0.359 ± 0.113
10 mg/kg i.g. BID × 3 days
  mRNA Expression Level of Glil Gene: 0.045 ± 0.035
high-dose group (10 mg/kg)
  inhibition of Hedgehog signaling compared with the high-dose group of GDC-0449 (10 mg/kg): significantly stronger inhibition
